Results as given in patent publication US11780840B2 (Incyte Corporation, priority 2020, dated 2023).

How the values were obtained:
[1] = target: T1, catalytic domain (JH1, amino acids 826-1132) of human JAK2 (Homo sapiens, UniProt O60674); assay: JAK2 LanthaScreen JH1 Binding Assay; conditions: JAK2 JH1 (1.5 nM), 50 nM fluorescent JAK2-JH1 tracer, 2 hours at 25° C.; read-out: JH1 BIND
T1 construct: catalytic domain (JH1, amino acids 826-1132) of human JAK2; FLAG (N); purchased Carna Biosciences 08-445-20N; host or cells: baculovirus expression system
T1 sequence (O60674 826-1132): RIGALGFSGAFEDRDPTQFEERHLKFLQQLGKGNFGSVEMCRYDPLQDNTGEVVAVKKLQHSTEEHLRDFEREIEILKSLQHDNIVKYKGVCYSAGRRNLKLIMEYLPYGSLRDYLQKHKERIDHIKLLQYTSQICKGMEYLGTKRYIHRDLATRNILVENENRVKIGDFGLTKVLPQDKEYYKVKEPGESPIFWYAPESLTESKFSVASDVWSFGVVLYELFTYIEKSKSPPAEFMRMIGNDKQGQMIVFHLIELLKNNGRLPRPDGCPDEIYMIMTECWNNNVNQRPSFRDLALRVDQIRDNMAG
Summary of the method: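 TR-FRET tracer-displacement format: compound IC50 from four-parameter curves after 2 h at 25° C. Reaction held 1.5 nM biotinylated, FLAG-tagged JH1 (aa 826-1132), 50 nM tracer, 0.5 nM Streptavidin-Tb, pH 7.5 Tris buffer; 2 mM ATP set nonspecific background.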

[2] = target: T2, pseudo-kinase domain (JH2, amino-acids 536-812 with 3 surface mutations W659A, W777A, F794H) of human Wild Type JAK2 (Homo sapiens, UniProt O60674, F794H/W659A/W777A); assay: JAK2 LanthaScreen JH2-WT Binding Assay; conditions: JAK2 JH2-WT (0.145 nM), 50 nM Fluorescent JAK2-JH2 Tracer, 1 hour at 25° C.; read-out: JH2 BIND WT
T2 construct: pseudo-kinase domain (JH2, amino-acids 536-812 with 3 surface mutations W659A, W777A, F794H); His (C); Avi (biotinylated) (C); purchased BPS Bioscience 79463; host or cells: baculovirus expression system
T2 sequence (O60674 536-812 W659A/W777A/F794H): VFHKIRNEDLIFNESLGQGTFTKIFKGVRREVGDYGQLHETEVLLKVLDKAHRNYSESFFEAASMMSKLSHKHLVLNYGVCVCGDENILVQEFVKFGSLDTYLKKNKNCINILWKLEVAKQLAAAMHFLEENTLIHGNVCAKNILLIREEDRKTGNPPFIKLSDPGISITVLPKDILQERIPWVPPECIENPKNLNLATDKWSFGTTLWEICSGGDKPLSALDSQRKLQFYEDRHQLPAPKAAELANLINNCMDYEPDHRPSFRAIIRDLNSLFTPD
Summary of the method: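 IC50 values derive from four-parameter fits of LanthaScreen signal, measuring displacement of 50 nM fluorescent tracer from 0.145 nM biotinylated, baculovirus-expressed JH2 (536-812) detected by 0.25 nM streptavidin-Tb. Incubation lasts 1 hour at 25° C, pH 7.5.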

[3] = target: T3, pseudo-kinase domain (JH2, amino-acids 536-812 with 3 surface mutations W659A, W777A, F794H) of human V617F mutant JAK2 (Homo sapiens, UniProt O60674, F794H/V617F/W659A/W777A); assay: JAK2 LanthaScreen JH2-V617F Binding Assay; conditions: JAK2 JH2-V617F (0.26 nM), 50 nM Fluorescent JAK2-JH2 Tracer, 1 hour at 25° C.; read-out: JH2 BIND V617F
T3 construct: pseudo-kinase domain (JH2, amino-acids 536-812 with 3 surface mutations W659A, W777A, F794H); His (C); Avi (biotinylated) (C); purchased BPS Bioscience 79498; host or cells: baculovirus expression system
T3 sequence (O60674 536-812 V617F/W659A/W777A/F794H): as the sequence (O60674 536-812 W659A/W777A/F794H) above, with V82F counted along it
Summary of the method: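 This is a TR-FRET tracer-displacement format with a 1 h, 25 °C incubation. It combined 0.26 nM baculovirus-expressed biotinylated JH2-V617F, 50 nM fluorescent JAK2-JH2 tracer and 0.25 nM streptavidin-Tb cryptate in 50 mM Tris pH 7.5, 10 mM MgCl2, 5 mM DTT. Background came from 2 mM ATP, and IC50 values were from four-parameter dose-response fits.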

SMILES	IC50 [1]	IC50 [2]	IC50 [3]
CC(C)n1c(=O)n(C)c2cnc3[nH]c(-c4cnn(CC(C)(C)O)c4)c(-c4ccn5cncc5c4)c3c21 [Example 85, 7-(1-(2-Hydroxy-2-methylpropyl)-1H-pyrazol-4-yl)-8-(imidazo[1,5-a]pyridin-7-yl)-1-isopropyl-3-methyl-3,6-dihydroimidazo[4,5-d]pyrrolo[2,3-b]pyridin-2(1H)-one]	> 1000 nM	≤ 10 nM	10 to 100 nM
CC(C)n1c(=O)n(C)c2cnc3[nH]c(-c4cnn(CC(C)(C)O)c4)c(-c4ccc5c(c4)CCC5O)c3c21 (stereo not drawn) [Example 86, 8-(1-Hydroxy-2,3-dihydro-1H-inden-5-yl)-7-(1-(2-hydroxy-2-methylpropyl)-1H-pyrazol-4-yl)-1-isopropyl-3-methyl-3,6-dihydroimidazo[4,5-d]pyrrolo[2,3-b]pyridin-2(1H)-one]	> 1000 nM	≤ 10 nM	10 to 100 nM
CC(C)n1c(=O)n(C)c2cnc3[nH]c(-c4cnn(CC(C)(C)O)c4)c(-c4ccc(COC5CCOCC5)cc4)c3c21 [Example 87, 7-(1-(2-Hydroxy-2-methylpropyl)-1H-pyrazol-4-yl)-1-isopropyl-3-methyl-8-(4-(((tetrahydro-2H-pyran-4-yl)oxy)methyl)phenyl)-3,6-dihydroimidazo[4,5-d]pyrrolo[2,3-b]pyridin-2(1H)-one]	> 1000 nM	≤ 10 nM	≤ 10 nM
CC(C)n1c(=O)n(C)c2cnc3[nH]c(-c4cnn(CC(C)(C)O)c4)c(C45CCNCC4C5)c3c21 (stereo not drawn) [Example 88, 8-(3-Azabicyclo[4.1.0]heptan-6-yl)-7-(1-(2-hydroxy-2-methylpropyl)-1H-pyrazol-4-yl)-1-isopropyl-3-methyl-3,6-dihydroimidazo[4,5-d]pyrrolo[2,3-b]pyridin-2(1H)-one]	> 1000 nM	≤ 10 nM	10 to 100 nM
CN(C)C(=O)c1ccc(-c2[nH]c3ncc4c(c3c2-c2ccc3c(cnn3C)c2)n(C2CCCC2)c(=O)n4C)cc1 [Example 89, 4-(1-Cyclopentyl-3-methyl-8-(1-methyl-1H-indazol-5-yl)-2-oxo-1,2,3,6-tetrahydroimidazo [4,5-d]pyrrolo[2,3-b]pyridin-7-yl)-N,N-dimethylbenzamide]	500 to 1000 nM	≤ 10 nM	≤ 10 nM
Cn1ncc2cc(-c3c(-c4cnn5cccnc45)[nH]c4ncc5c(c34)n(C3CCOCC3)c(=O)n5C)ccc21 [Example 90, 3-Methyl-8-(1-methyl-1H-indazol-5-yl)-7-(pyrazolo[1,5-a]pyrimidin-3-yl)-1-(tetrahydro-2H-pyran-4-yl)-3,6-dihydroimidazo[4,5-d]pyrrolo[2,3-b]pyridin-2(1H)-one]	> 1000 nM	≤ 10 nM	≤ 10 nM
COc1nn(C)cc1-c1[nH]c2ncc3c(c2c1-c1ccc2c(cnn2C)c1)n(C1CCOCC1)c(=O)n3C [Example 91, 7-(3-methoxy-1-methyl-1H-pyrazol-4-yl)-3-methyl-8-(1-methyl-1H-indazol-5-yl)-1-(tetrahydro-2H-pyran-4-yl)-3,6-dihydroimidazo[4,5-d]pyrrolo[2,3-b]pyridin-2(1H)-one]	> 1000 nM	≤ 10 nM	≤ 10 nM
Cn1ncc2cc(-c3c(-c4cnn5c4CCC5)[nH]c4ncc5c(c34)n(C3CCOCC3)c(=O)n5C)ccc21 [Example 92, 7-(5,6-Dihydro-4H-pyrrolo[1,2-b]pyrazol-3-yl)-3-methyl-8-(1-methyl-1H-indazol-5-yl)-1-(tetrahydro-2H-pyran-4-yl)-3,6-dihydroimidazo[4,5-d]pyrrolo[2,3-b]pyridin-2(1H)-one]	> 1000 nM	≤ 10 nM	≤ 10 nM
Cn1ncc2cc(-c3c(C(O)C4CC4)[nH]c4ncc5c(c34)n(C3CCOCC3)c(=O)n5C)ccc21 (stereo not drawn) [Example 95, 7-(Cyclopropyl(hydroxy)methyl)-3-methyl-8-(1-methyl-1H-indazol-5-yl)-1-(tetrahydro-2H-pyran-4-yl)-3,6-dihydroimidazo[4,5-d]pyrrolo[2,3-b]pyridin-2(1H)-one]	> 1000 nM	≤ 10 nM	10 to 100 nM
